Assay: xn = mol fraction of the nth substance listed
Settings: Constant-volume piezometry

CCCCC [pentane] + CCCO
Liquid
Settings	mass density [kg/m3]
305.05 K, x1 = 0.8	631.08
312.65 K, x1 = 0.8	623.57
317.85 K, x1 = 0.5	663.63
324.25 K, x1 = 0.8	611.04
334.25 K, x1 = 0.8	601.01
351.05 K, x1 = 0.5	631.49
353.55 K, x1 = 0.8	575.9
368.45 K, x1 = 0.5	611.87
372.15 K, x1 = 0.8	553.38
381.85 K, x1 = 0.2	663.76
383.55 K, x1 = 0.5	592.03
394.65 K, x1 = 0.8	524.7
396.15 K, x1 = 0.2	640.78
410.15 K, x1 = 0.8	499.43
410.75 K, x1 = 0.5	551.97
415.75 K, x1 = 0.2	618.67
425.55 K, x1 = 0.8	469.31
429.15 K, x1 = 0.2	598.54
431.15 K, x1 = 0.5	522.22

Settings	mass density [kg/m3]
308.15 K, 2402 kPa, Liquid, x1 = 0.8	630.94
313.15 K, 157 kPa, Liquid, x1 = 0.8	623.55
313.15 K, 6022 kPa, Liquid, x1 = 0.8	630.7
314.15 K, 765 kPa, Liquid, x1 = 0.8	623.51
318.15 K, 3615 kPa, Liquid, x1 = 0.8	623.33
323.15 K, 3447 kPa, Liquid, x1 = 0.5	663.38
323.15 K, 7107 kPa, Liquid, x1 = 0.8	623.1
323.15 K, 13373 kPa, Liquid, x1 = 0.8	630.24
325.15 K, 801 kPa, Liquid, x1 = 0.8	611.01
333.15 K, 5935 kPa, Liquid, x1 = 0.8	610.66
333.15 K, 9686 kPa, Liquid, x1 = 0.5	662.92
333.15 K, 14195 kPa, Liquid, x1 = 0.8	622.65
333.15 K, 20785 kPa, Liquid, x1 = 0.8	629.77
335.15 K, 769 kPa, Liquid, x1 = 0.8	600.98
338.15 K, 2550 kPa, Liquid, x1 = 0.8	600.85
343.15 K, 5592 kPa, Liquid, x1 = 0.8	600.65
343.15 K, 12414 kPa, Liquid, x1 = 0.8	610.23
343.15 K, 16000 kPa, Liquid, x1 = 0.5	662.46
343.15 K, 21183 kPa, Liquid, x1 = 0.8	622.2
343.15 K, 28234 kPa, Liquid, x1 = 0.8	629.31
351.15 K, 441 kPa, Liquid, x1 = 0.5	631.49
353.15 K, 1647 kPa, Liquid, x1 = 0.5	631.4
353.15 K, 11601 kPa, Liquid, x1 = 0.8	600.23
353.15 K, 18747 kPa, Liquid, x1 = 0.8	609.8
353.15 K, 22340 kPa, Liquid, x1 = 0.5	661.99
353.15 K, 28151 kPa, Liquid, x1 = 0.8	621.75
353.15 K, 35636 kPa, Liquid, x1 = 0.8	628.84
355.15 K, 1219 kPa, Liquid, x1 = 0.8	575.84
358.15 K, 2713 kPa, Liquid, x1 = 0.8	575.73
363.15 K, 5237 kPa, Liquid, x1 = 0.8	575.54
363.15 K, 7726 kPa, Liquid, x1 = 0.5	630.97
363.15 K, 17738 kPa, Liquid, x1 = 0.8	599.81
363.15 K, 25314 kPa, Liquid, x1 = 0.8	609.37
363.15 K, 28606 kPa, Liquid, x1 = 0.5	661.53
363.15 K, 35183 kPa, Liquid, x1 = 0.8	621.29
363.15 K, 42979 kPa, Liquid, x1 = 0.8	628.38
372.65 K, 854 kPa, Liquid, x1 = 0.8	553.36
373.15 K, 1058 kPa, Liquid, x1 = 0.8	553.35
373.15 K, 3137 kPa, Liquid, x1 = 0.5	611.68
373.15 K, 10414 kPa, Liquid, x1 = 0.8	575.16
373.15 K, 13490 kPa, Liquid, x1 = 0.5	630.54
373.15 K, 23787 kPa, Liquid, x1 = 0.8	599.4
373.15 K, 31687 kPa, Liquid, x1 = 0.8	608.94
373.15 K, 34882 kPa, Liquid, x1 = 0.5	661.07
373.15 K, 42247 kPa, Liquid, x1 = 0.8	620.84
378.15 K, 5874 kPa, Liquid, x1 = 0.5	611.47
383.15 K, 1487 kPa, Liquid, x1 = 0.2	663.69
383.15 K, 4567 kPa, Liquid, x1 = 0.5	602.79
383.15 K, 5590 kPa, Liquid, x1 = 0.8	552.99
383.15 K, 8687 kPa, Liquid, x1 = 0.5	611.26
383.15 K, 15678 kPa, Liquid, x1 = 0.8	574.78
383.15 K, 19194 kPa, Liquid, x1 = 0.5	630.11
383.15 K, 29885 kPa, Liquid, x1 = 0.8	598.99
383.15 K, 38107 kPa, Liquid, x1 = 0.8	608.51
384.15 K, 1047 kPa, Liquid, x1 = 0.5	592.01
393.15 K, 941 kPa, Liquid, x1 = 0.5	579.06
393.15 K, 5707 kPa, Liquid, x1 = 0.5	591.66
393.15 K, 8491 kPa, Liquid, x1 = 0.2	663.21
393.15 K, 10012 kPa, Liquid, x1 = 0.5	602.39
393.15 K, 10151 kPa, Liquid, x1 = 0.8	552.64
393.15 K, 14096 kPa, Liquid, x1 = 0.5	610.86
393.15 K, 20747 kPa, Liquid, x1 = 0.8	574.4
393.15 K, 25038 kPa, Liquid, x1 = 0.5	629.68
393.15 K, 36012 kPa, Liquid, x1 = 0.8	598.57
393.15 K, 44637 kPa, Liquid, x1 = 0.8	608.08
395.15 K, 1157 kPa, Liquid, x1 = 0.8	524.69
398.15 K, 2324 kPa, Liquid, x1 = 0.8	524.59
403.15 K, 905 kPa, Gas, x1 = 0.8	22.65
403.15 K, 4215 kPa, Liquid, x1 = 0.8	524.43
403.15 K, 4306 kPa, Liquid, x1 = 0.2	640.49
403.15 K, 5622 kPa, Liquid, x1 = 0.5	578.69
403.15 K, 10647 kPa, Liquid, x1 = 0.5	591.27
403.15 K, 14687 kPa, Liquid, x1 = 0.8	552.29
403.15 K, 15313 kPa, Liquid, x1 = 0.2	662.74
403.15 K, 15471 kPa, Liquid, x1 = 0.5	601.98
403.15 K, 19586 kPa, Liquid, x1 = 0.5	610.45
403.15 K, 25962 kPa, Liquid, x1 = 0.8	574.02
403.15 K, 30841 kPa, Liquid, x1 = 0.5	629.25
403.15 K, 42147 kPa, Liquid, x1 = 0.8	598.16
413.15 K, 944 kPa, Gas, x1 = 0.8	22.64
413.15 K, 2137 kPa, Liquid, x1 = 0.5	551.89
413.15 K, 2268 kPa, Liquid, x1 = 0.8	499.34
413.15 K, 7884 kPa, Liquid, x1 = 0.8	524.12
413.15 K, 10313 kPa, Liquid, x1 = 0.5	578.32
413.15 K, 10612 kPa, Liquid, x1 = 0.2	640.04
413.15 K, 15843 kPa, Liquid, x1 = 0.5	590.88
413.15 K, 19245 kPa, Liquid, x1 = 0.8	551.94
413.15 K, 21025 kPa, Liquid, x1 = 0.5	601.58
413.15 K, 22059 kPa, Liquid, x1 = 0.2	662.26
413.15 K, 24988 kPa, Liquid, x1 = 0.5	610.04
413.15 K, 31136 kPa, Liquid, x1 = 0.8	573.65
413.15 K, 36585 kPa, Liquid, x1 = 0.5	628.82
414.15 K, 712 kPa, Gas, x1 = 0.5	15.6
415.15 K, 715 kPa, Gas, x1 = 0.5	15.6
416.15 K, 1229 kPa, Liquid, x1 = 0.2	618.66
416.15 K, 1374 kPa, Gas, x1 = 0.8	36.88
423.15 K, 737 kPa, Gas, x1 = 0.5	15.59
423.15 K, 982 kPa, Gas, x1 = 0.8	22.63
423.15 K, 1418 kPa, Gas, x1 = 0.8	36.86
423.15 K, 4884 kPa, Liquid, x1 = 0.2	618.37
423.15 K, 5404 kPa, Liquid, x1 = 0.8	499.05
423.15 K, 5815 kPa, Liquid, x1 = 0.5	551.55
423.15 K, 11608 kPa, Liquid, x1 = 0.8	523.8
423.15 K, 14921 kPa, Liquid, x1 = 0.5	577.95
423.15 K, 16915 kPa, Liquid, x1 = 0.2	639.59
423.15 K, 20842 kPa, Liquid, x1 = 0.5	590.5
423.15 K, 23598 kPa, Liquid, x1 = 0.8	551.59
423.15 K, 26392 kPa, Liquid, x1 = 0.5	601.18
423.15 K, 28950 kPa, Liquid, x1 = 0.2	661.79
423.15 K, 30447 kPa, Liquid, x1 = 0.5	609.63
423.15 K, 36411 kPa, Liquid, x1 = 0.8	573.27
426.15 K, 1900 kPa, Liquid, x1 = 0.8	469.29
432.15 K, 2018 kPa, Liquid, x1 = 0.5	522.19
433.15 K, 760 kPa, Gas, x1 = 0.5	15.59
433.15 K, 1023 kPa, Gas, x1 = 0.8	22.62
433.15 K, 1472 kPa, Gas, x1 = 0.8	36.85
433.15 K, 2403 kPa, Liquid, x1 = 0.5	522.16
433.15 K, 3158 kPa, Liquid, x1 = 0.2	598.39
433.15 K, 3619 kPa, Liquid, x1 = 0.8	469.11
433.15 K, 8493 kPa, Liquid, x1 = 0.8	498.76
433.15 K, 9460 kPa, Liquid, x1 = 0.5	551.22
433.15 K, 10196 kPa, Liquid, x1 = 0.2	617.96
433.15 K, 15352 kPa, Liquid, x1 = 0.8	523.48
433.15 K, 19645 kPa, Liquid, x1 = 0.5	577.58
433.15 K, 23135 kPa, Liquid, x1 = 0.2	639.15
433.15 K, 26095 kPa, Liquid, x1 = 0.5	590.11
433.15 K, 28096 kPa, Liquid, x1 = 0.8	551.24
433.15 K, 31893 kPa, Liquid, x1 = 0.5	600.78
